Measurements reported in article PMC8533206 (Antioxidants, 2021).
Entries after “also recorded” stand apart in the source; their conditions may differ.

Tests used:
hMAO-B enzyme = biological target: T1, hMAO-B enzyme (Homo sapiens, UniProt P27338); experiment: Michaelis-Menten kinetic study of MAO-B inhibition mode; assay type: biochemical; conditions: for Type of MAO-B inhibition: Lineweaver-Burk plots intersect at y-axis; for Ki: benzylamine 0.065-4 mM, inhibitor 10, 30, 100 nM, read-out: Ki (inhibition constant), MAO-B
T1 construct: purchased Sigma-Aldrich; host or cells: insect cells
T1 sequence (P27338 1-520): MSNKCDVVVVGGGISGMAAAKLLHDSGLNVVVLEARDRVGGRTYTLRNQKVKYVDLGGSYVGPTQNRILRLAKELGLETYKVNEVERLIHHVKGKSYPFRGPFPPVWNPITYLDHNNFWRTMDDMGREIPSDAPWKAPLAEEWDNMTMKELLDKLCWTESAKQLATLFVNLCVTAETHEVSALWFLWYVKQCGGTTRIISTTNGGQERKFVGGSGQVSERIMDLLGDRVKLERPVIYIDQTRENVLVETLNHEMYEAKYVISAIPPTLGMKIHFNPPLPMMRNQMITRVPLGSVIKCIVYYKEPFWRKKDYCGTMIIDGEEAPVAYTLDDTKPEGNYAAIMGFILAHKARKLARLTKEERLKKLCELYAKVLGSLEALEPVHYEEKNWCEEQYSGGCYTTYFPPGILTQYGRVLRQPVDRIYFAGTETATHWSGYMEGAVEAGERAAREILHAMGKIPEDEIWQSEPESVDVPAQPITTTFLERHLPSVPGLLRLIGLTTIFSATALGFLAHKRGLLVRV
Description: The type of MAO-B inhibition of the tested compounds was determined by Michaelis-Menten kinetic study following our recently reported study. The type of MAO-B inhibition of the tested compound(s) was determined by Michaelis–Menten kinetic study. The catalytic rates of the hMAO-B enzyme in the absence or in the presence of three different concentrations (10, 30, and 100 nM) of the tested compound were measured at seven different concentrations of the benzylamine (0.065, 0.125, 0.25, 0.5, 1, 2, and 4 mM). The corresponding progression curves and the Lineweaver-Burk plots were generated using GraphPad Prism 7 (GraphPad Software, Inc., La Jolla, CA, USA). The maximal velocity (Vmax), the Michaelis constant (Km), and the inhibition constant (Ki) were calculated using SigmaPlot® 13.0.
The initial rates of MAO-B inhibition in the absence and presence of the tested compound were measured at various concentrations (0.065, 0.125, 0.25, 0.5, 1, 2, and 4 mM) of benzylamine (a selective substrate for MAO-B). The corresponding progression curves and the Lineweaver-Burk plots were generated using GraphPad Prism 7. Both Michaelis–Menten and the Lineweaver-Burk plots were depicted in Figure 4 and Figure 5. […] The maximal velocity (Vmax), the Michaelis constant (Km), and the inhibition constant (Ki) were calculated using SigmaPlot®.

PC12 cells [1] = experiment: Protective effect against 6-OHDA-induced cytotoxicity in PC12 cells (MTT); conditions: Rattus norvegicus, PC-12, read-out: IC50 against 6-OHDA-induced cytotoxicity
Description: (§1) PC12 cells were routinely maintained in RPMI-1640 media containing 100 IU/mL penicillin, and 100 μg/mL streptomycin supplemented by 10% heat-inactivated HS, 5% FBS in a humidified incubator containing 5% CO2 and 95% air at 37 °C [25]. The cell culture media was changed every two days. To perform experiments, cells were plated on poly-D-lysine/laminin-coated 24-well plates at a density of 3 × 10^5 cells/well and incubated for at least 24 h to allow cell adhesion.
(§2) To examine the effects of the test compounds on cell survival, cells were incubated in low serum media (1% HS, 1% FBS, 100 IU/mL penicillin, and 100 μg/mL streptomycin) with test compounds at the concentrations of 10 and 30 μM or an equivalent volume of vehicle control (DMSO at the final concentration of 0.3%) for 24 h. The media containing test compounds was sonicated at room temperature for 30 min to assure adequate dissolution in the media. […]
(§3) After the desired treatment, cell viability was determined by MTT assay as described previously, with slight modification. […] The absorbance of the dissolved solution was measured at 550 nm using a microplate reader (SpectraMax M2e, Molecular Devices, Sunnyvale, CA, USA). The cell viability was presented as the percentage of the absorbance measured in the vehicle-treated control cells. […]

PC12 cells [2] = experiment: Protective effect against rotenone-induced cytotoxicity in PC12 cells (MTT); conditions: Rattus norvegicus, PC-12, read-out: IC50 against rotenone-induced cytotoxicity
Description: as §1, §2, §3

Compound	Type of MAO-B inhibition (hMAO-B enzyme)	Ki (hMAO-B enzyme)	IC50 (PC12 cells [1])	IC50 (PC12 cells [2])
O=C(Nc1ccc(Br)cc1)c1ccc2[nH]ccc2c1 [Compound 8b, N-(4-bromophenyl)-1H-indole-5-carboxamide]	competitive, and accordingly, reversible; also recorded: Competitive inhibition	6.63 nM	2800 nM	3300 nM
O=C(Nc1ccc(I)cc1)c1ccc2[nH]ccc2c1 [Compound 8a, N-(4-iodophenyl)-1H-indole-5-carboxamide]	competitive, and accordingly, reversible; also recorded: Competitive inhibition	10.3 nM		
